# Laboratory results as given in US10450281B1, “Compounds and methods for treating cancer” (Dana-Farber Cancer Institute, Inc., priority 2014, dated 2019).
# Columns and labels:
# USP1 = target: T1, USP1 (Homo sapiens, UniProt O94782); experiment: Ub-VS labelling gel shift in K562 cell lysate, anti-USP1 western blot (FIG. 4); type: biochemical; conditions: dose dependent
# T1 construct: endogenous in cells; host or cells: K562 human leukemia cells (lysate)
# Description: (§1) Human leukemia cells (K652 cell line) express USP8, USP1, and other DUBs. In this experiment, K562 cells were lysed, and total cellular proteins were incubated with the affinity reagent, Ub-VS (vinyl sulfone) which covalently binds to active USPs. As indicated, the addition of Ub-VS causes an upward gel shift of active USP8 and active USP1 (lane 2). […] A western blot is shown, immunoblotted with either anti-USP8, anti-USP1, or anti-HA.
# as §1, with “anti-HA antibodies.” for “anti-HA.”
# USP8 = target: T2, USP8 (Homo sapiens, UniProt P40818); experiment: Ub-VS labelling gel shift in K562 cell lysate, anti-USP8 western blot (FIG. 4); type: biochemical; conditions: dose dependent
# T2 construct: endogenous in cells; host or cells: K562 human leukemia cells (lysate)
# T2 sequence (P40818 1-1118): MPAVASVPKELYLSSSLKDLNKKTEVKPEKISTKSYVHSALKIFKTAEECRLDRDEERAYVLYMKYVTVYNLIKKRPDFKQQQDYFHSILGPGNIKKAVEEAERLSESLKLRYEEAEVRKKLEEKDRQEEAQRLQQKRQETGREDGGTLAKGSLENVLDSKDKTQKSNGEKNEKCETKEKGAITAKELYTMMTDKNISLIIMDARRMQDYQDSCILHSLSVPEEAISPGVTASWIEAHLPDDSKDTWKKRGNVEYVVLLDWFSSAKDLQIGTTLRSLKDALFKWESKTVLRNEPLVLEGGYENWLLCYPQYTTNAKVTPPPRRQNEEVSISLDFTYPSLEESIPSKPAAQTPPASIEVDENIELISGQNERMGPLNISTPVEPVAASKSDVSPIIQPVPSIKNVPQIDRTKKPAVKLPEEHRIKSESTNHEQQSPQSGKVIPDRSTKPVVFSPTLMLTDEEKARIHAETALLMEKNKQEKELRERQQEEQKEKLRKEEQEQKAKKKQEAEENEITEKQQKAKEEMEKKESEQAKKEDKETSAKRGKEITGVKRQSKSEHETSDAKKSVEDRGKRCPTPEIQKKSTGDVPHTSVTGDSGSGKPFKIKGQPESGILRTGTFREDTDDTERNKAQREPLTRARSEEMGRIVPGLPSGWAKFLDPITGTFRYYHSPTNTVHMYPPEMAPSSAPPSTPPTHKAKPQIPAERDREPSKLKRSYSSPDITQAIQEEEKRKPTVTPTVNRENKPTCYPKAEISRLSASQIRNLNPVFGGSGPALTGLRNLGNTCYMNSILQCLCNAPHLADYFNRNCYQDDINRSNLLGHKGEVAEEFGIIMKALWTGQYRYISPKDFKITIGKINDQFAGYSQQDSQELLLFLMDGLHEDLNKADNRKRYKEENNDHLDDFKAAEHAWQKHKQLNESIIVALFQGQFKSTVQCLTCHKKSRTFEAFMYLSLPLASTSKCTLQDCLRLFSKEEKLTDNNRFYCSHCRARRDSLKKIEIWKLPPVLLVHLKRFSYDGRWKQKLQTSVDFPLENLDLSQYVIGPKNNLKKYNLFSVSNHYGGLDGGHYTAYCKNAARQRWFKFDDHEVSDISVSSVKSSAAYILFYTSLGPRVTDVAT
# Description: as §1
# as §1, with “anti-HA antibodies.” for “anti-HA.”
# AR = AR degradation immunoblot in prostate cancer cell line (FIG. 9); type: cell-based, human; conditions: 24 h
# Description: (§2) Specifically, a human prostate cancer cell line was exposed to the indicated concentrations of PAN-DUB inhibitor, 019A, for 24 hours. Thereafter, cells were lysed, and total cellular proteins were electrophoresed and immunoblotted. Proteins were probed with anti-USP12, anti-AR, and anti-Tubulin antibodies. […] Specifically, a human prostate cancer cell line was exposed to the indicated concentrations of PAN-DUB inhibitor, 019A, for 24 hours. Thereafter, cells were lysed, and total cellular proteins were electrophoresed and immunoblotted. Proteins were probed with anti-USP12, anti-AR, and anti-Tubulin antibodies. Conclusion: the PAN-DUB inhibitor promotes the dose-dependent degradation of AR, consistent with the dose-dependent killing of the cells by the drug. The dose of the inhibitor that reduce the viability of the prostate cancer cells (about 0.5 to 0.8 μm, see FIG. 5 and FIG. 7) correlates with the amount of drug required to degrade AR (about 0.6 to 0.8 μm).
# [1] = Pharmacokinetics of 019A in mice (FIG. 1); type: in vivo; conditions: IV, IP, or oral (PO) administration
# [2] = tested on: human prostate cancer cell line; experiment: Prostate cancer cell viability after 24 h incubation (FIG. 5, FIG. 7); type: cell-based
# Description: A human prostate cancer cell line was incubated with the indicated concentration of DUB inhibitor for 24 hours, and viability was then measured. […] A human prostate cancer cell line was incubated with the indicated concentration of DUB inhibitor for 24 hours, and viability was then measured. […] A human prostate cancer cell line was incubated with the indicated concentration of DUB inhibitor for 24 hours, and viability was then measured.
# USP2a = target: T3, USP2a (Homo sapiens, UniProt O75604); experiment: USP2a expression immunoblot in prostate cancer cell line (FIG. 6, FIG. 8); type: cell-based; conditions: 24 h
# T3 construct: endogenous in cells
# T3 sequence (O75604 1-605): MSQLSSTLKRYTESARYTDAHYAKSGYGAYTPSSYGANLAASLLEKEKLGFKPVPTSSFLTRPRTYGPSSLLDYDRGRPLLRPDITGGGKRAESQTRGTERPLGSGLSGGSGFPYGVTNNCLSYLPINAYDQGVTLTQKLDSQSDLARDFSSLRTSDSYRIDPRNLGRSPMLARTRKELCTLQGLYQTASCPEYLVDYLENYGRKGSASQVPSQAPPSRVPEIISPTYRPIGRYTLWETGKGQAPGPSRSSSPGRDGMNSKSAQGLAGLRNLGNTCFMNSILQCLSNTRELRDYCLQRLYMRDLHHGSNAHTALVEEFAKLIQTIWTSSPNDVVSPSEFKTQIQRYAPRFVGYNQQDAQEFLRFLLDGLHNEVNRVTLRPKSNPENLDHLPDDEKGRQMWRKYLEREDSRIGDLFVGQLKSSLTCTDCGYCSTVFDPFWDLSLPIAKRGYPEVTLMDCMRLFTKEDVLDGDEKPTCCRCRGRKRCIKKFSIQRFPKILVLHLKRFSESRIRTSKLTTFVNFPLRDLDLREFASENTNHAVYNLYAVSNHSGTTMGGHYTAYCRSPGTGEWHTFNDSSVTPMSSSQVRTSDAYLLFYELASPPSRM
# Description: (§3) Specifically, a human prostate cancer cell line was exposed to the indicated concentrations of PAN-DUB inhibitor, 019A, for 24 hours. Thereafter, cells were lysed, and total cellular proteins were electrophoresed and immunoblotted. Proteins were probed with anti-USP2, anti-Cyclin D1, and anti-vinculin. […] Specifically, a human prostate cancer cell line was exposed to the indicated concentrations of PAN-DUB inhibitor, 019A, for 24 hours. Thereafter, cells were lysed, and total cellular proteins were electrophoresed and immunoblotted. Proteins were probed with anti-USP2, anti-Cyclin D1, and anti-tubulin. […] Specifically, a human prostate cancer cell line was exposed to the indicated concentrations of PAN-DUB inhibitor, 019A, for 24 hours. Thereafter, cells were lysed, and total cellular proteins were electrophoresed and immunoblotted. Proteins were probed with anti-USP2, anti-Cyclin D1, and anti-Tubulin antibodies or anti-vinculin antibodies. Conclusion: the PAN-DUB inhibitor promotes the dose-dependent degradation of Cyclin D1, consistent with the dose-dependent killing of the cells by the drug. The dose of the inhibitor that reduce the viability of the prostate cancer cells (about 0.5 to 0.8 μm, see FIG. 5 and FIG. 7) correlates with the amount of drug required to degrade cyclin D1 (about 0.5 to 0.8 μm).
# USP12 = target: T4, USP12 (Homo sapiens, UniProt O75317); experiment: USP12 protein immunoblot in prostate cancer cell line (FIG. 9); type: cell-based; conditions: 24 h
# T4 construct: cells were lysed, and total cellular proteins were electrophoresed and immunoblotted; endogenous in cells
# T4 sequence (O75317 whole entry): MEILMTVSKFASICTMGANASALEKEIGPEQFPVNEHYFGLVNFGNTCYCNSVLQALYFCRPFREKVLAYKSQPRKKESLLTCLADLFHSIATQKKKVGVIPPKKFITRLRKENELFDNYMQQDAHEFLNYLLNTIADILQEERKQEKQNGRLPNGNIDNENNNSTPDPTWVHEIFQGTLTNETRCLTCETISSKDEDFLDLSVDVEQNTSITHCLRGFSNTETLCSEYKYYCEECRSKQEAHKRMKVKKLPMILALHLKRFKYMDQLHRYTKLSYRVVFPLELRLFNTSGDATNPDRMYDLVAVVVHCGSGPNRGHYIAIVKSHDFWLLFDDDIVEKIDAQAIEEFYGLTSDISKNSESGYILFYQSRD
# T4 sequence (Q8TAF3 whole entry partner): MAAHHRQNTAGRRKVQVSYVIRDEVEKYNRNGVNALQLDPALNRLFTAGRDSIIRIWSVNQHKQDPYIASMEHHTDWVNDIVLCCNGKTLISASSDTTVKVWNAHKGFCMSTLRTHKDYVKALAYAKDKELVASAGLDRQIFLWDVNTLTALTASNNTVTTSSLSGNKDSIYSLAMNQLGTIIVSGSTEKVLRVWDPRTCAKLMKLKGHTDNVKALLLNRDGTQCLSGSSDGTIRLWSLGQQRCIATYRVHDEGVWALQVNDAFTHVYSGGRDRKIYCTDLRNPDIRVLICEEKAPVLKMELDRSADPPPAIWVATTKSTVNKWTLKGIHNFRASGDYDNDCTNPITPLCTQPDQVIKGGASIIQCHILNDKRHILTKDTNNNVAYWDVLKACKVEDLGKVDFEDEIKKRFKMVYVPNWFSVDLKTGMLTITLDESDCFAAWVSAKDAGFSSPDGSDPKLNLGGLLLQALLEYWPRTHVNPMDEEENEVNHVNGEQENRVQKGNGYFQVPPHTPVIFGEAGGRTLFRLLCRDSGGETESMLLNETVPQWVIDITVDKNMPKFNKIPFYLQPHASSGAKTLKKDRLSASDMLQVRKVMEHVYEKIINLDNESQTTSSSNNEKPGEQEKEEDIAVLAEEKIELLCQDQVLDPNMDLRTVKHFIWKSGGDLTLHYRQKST
# T4 sequence (Q8TBZ3 whole entry partner): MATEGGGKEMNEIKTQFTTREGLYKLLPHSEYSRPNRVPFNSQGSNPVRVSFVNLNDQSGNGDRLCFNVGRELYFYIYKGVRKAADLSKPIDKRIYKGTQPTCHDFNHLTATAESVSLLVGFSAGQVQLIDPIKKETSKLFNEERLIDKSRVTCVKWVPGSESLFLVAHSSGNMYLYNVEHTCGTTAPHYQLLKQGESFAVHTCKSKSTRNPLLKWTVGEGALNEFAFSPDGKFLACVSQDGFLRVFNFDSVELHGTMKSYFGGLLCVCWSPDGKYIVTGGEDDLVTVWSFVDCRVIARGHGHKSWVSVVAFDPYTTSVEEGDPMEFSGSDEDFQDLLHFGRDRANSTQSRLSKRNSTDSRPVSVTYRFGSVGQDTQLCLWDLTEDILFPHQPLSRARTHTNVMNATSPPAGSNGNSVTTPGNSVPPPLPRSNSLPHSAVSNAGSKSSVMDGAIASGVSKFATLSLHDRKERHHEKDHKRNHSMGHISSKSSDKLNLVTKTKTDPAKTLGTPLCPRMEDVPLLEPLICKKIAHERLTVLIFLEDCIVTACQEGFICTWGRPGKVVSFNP
# Description: as §2
# Cyclin D1 = Cyclin D1 degradation immunoblot in prostate cancer cell line (FIG. 6, FIG. 8); type: cell-based, human; conditions: 24 h
# Description: as §3
# EGFR = EGFR degradation immunoblot in NSCLC line H1650 (FIG. 3); type: cell-based, human; conditions: H1650 cells, 24 h
# Description: Specifically, the NSCLC line H1650, which is driven by a constitutively-activated EGFR, was treated with the indicated concentrations of the PAN-DUB inhibitor SJB-019A and/or the kinase inhibitor Gefitinib. After 24 hours, cells were lysed and the total cellular proteins were electrophoresed by standard PAGE methods. Proteins were immunoblotted and probed with commercially available polyclonal antisera to EGFR or Tubulin. […] Specifically, the NSCLC line H1650, which is driven by a constitutively-activated EGFR, was treated with the indicated concentrations of the PAN-DUB inhibitor SJB-019A and/or the kinase inhibitor Gefitinib. After 24 hours, cells were lysed and the total cellular proteins were electrophoresed by standard PAGE methods. Proteins were immunoblotted and probed with commercially available polyclonal antisera to EGFR or Tubulin. Conclusion: the PAN-DUB inhibitor promotes the degradation of the EGFR, at least in part, by inhibition of USP8 which is expressed in these cells. The dose of the inhibitor that reduce the viability of the NSCLC (less than 0.5 μm, see FIG. 2) correlates with the amount of drug required to degrade EGFR (between 0.2-0.5 μm).
# [3] = tested on: human non-small cell lung cancer (NSCLC) lines; experiment: NSCLC cell line viability after 24 h incubation (FIG. 2); type: cell-based
# Description: The indicated human non-small cell lung cancer (NSCLC) lines were incubated with the indicated concentrations of the DUB inhibitor (019A) for twenty-four hours, and cell viability was measured. […] The indicated human non-small cell lung cancer (NSCLC) lines were incubated with the indicated concentrations of the DUB inhibitor (019A) for twenty-four hours, and cell viability was measured. […] Specifically, the NSCLC line H1650, which is driven by a constitutively-activated EGFR, was treated with the indicated concentrations of the PAN-DUB inhibitor SJB-019A and/or the kinase inhibitor Gefitinib. After 24 hours, cells were lysed and the total cellular proteins were electrophoresed by standard PAGE methods. Proteins were immunoblotted and probed with commercially available polyclonal antisera to EGFR or Tubulin. Conclusion: the PAN-DUB inhibitor promotes the degradation of the EGFR, at least in part, by inhibition of USP8 which is expressed in these cells. The dose of the inhibitor that reduce the viability of the NSCLC (less than 0.5 μm, see FIG. 2) correlates with the amount of drug required to degrade EGFR (between 0.2-0.5 μm).
# T1 sequence (O94782 whole entry): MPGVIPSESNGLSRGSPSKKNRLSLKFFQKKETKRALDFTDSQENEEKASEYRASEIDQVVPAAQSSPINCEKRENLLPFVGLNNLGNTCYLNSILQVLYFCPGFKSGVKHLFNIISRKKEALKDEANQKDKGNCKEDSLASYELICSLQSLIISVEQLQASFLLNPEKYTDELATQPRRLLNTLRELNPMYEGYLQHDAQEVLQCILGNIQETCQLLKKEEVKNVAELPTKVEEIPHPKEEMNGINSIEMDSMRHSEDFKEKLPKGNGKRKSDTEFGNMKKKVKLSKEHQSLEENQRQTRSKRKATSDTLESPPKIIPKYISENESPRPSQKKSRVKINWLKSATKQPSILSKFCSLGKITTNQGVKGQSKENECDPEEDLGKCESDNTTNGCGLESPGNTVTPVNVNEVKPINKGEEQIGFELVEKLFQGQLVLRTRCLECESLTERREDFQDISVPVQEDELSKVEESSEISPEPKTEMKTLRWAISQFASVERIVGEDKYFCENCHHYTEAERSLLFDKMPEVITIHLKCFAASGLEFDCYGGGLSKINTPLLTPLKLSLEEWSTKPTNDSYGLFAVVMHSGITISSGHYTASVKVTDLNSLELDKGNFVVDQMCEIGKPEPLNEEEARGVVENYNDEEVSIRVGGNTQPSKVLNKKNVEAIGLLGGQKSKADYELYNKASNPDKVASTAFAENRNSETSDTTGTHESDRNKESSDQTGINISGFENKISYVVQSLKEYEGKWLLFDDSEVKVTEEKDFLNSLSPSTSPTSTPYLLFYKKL
# T1 sequence (Q8TAF3 whole entry partner): as the sequence (Q8TAF3 whole entry partner) above
Compound,inhibition of Ub-VS binding to active USP1 (USP1),inhibition of Ub-VS binding to active USP8 (USP8),amount of drug required to degrade AR (AR),serum concentrations after administration [1],dose of the inhibitor that reduces the viability of the prostate cancer cells [2],drug concentration range for killing of prostate cancer cells [2],effect on USP2a expression (USP2a),effect on USP12 protein (USP12),amount of drug required to degrade cyclin D1 (Cyclin D1),amount of drug required to degrade EGFR (EGFR),dose of the inhibitor that reduces the viability of the NSCLC ([3]; 24 h incubation),"selective killing (cytotoxicity) of lung cancer cell lines ([3]; cell lines which express activated EGF-receptor, 24 h)"
Ub-aldehyde,blocks the upward shift,blocks the upward shift,–,–,–,–,–,–,–,–,–,–
O=C1c2ccccc2C(=O)c2oc(-c3cccnc3)nc21 [019A],–,–,0.6 to 0.8 μm,inhibitory serum concentrations of 019A can be achieved,0.5 to 0.8 μm,submicromolar range,does not affect USP2a expression,degrades USP12 protein,0.5 to 0.8 μm,0.2-0.5 μm,less than 0.5 μm,selective killing (cytotoxicity) for lung cancer cell lines which express activated EGF-receptor
